{
  "source": "patent US12409174B2",
  "about": "“Combination of zibotentan and dapagliflozin for the treatment of endothelin related diseases” (priority 2020, dated 2025)",
  "key": {"[1]": {"experiment": "Amount of dapagliflozin and zibotentan excreted in urine, Experiment 2", "conditions": "Exp 2, urine collected between days 3 and 4", "method": "(§1) In the second experiment (Experiment 2), the effect of zibotentan and dapagliflozin (alone or in combination) on Hct concentration and Hb was determined. Seventy-two animals were randomized on BW and Hct concentration, 2 to 3 days prior to administration of study drugs into the following groups; 1) Vehicle, 2) Zibotentan (30 mg/kg), 3) Zibotentan (100 mg/kg), 4) Dapagliflozin (3 mg/kg), 5) Zibotentan (30 mg/kg)+Dapagliflozin (3 mg/kg) and 6) Zibotentan (100 mg/kg)+Dapagliflozin (3 mg/kg). For practical reasons, the study was conducted in two consecutive slots with 36 animals (6/group) in each slot. Compounds were administered p.o. QD for seven days. Blood samples for bioanalysis were collected at 4 and 24 hr after the first dose and 24 hr after the final dose for Hct concentration and Hb analysis on day three and seven as described for exp.1. Twenty-four hour urine was collected between the third and fourth dose. 24 hr food and water intake was measured between day 2-3 and between day 6-7. With two animals per cage, food intake and water intake per animal in a cage was assessed by dividing the food intake and water intake of a cage by two."}, "[2]": {"test_system": "male Wistar rats fed a 4% salt diet", "experiment": "Effect of zibotentan, dapagliflozin and the combination on Hct, Experiment 2", "type": "in vivo", "set-up": "key to Hct levels, difference in means (estimate): difference in log-transformed Hct means, treated minus vehicle; Hct levels, Difference / Difference in Hct means: unit not given here", "conditions": "Exp 2; for Difference in Hct means: all time points; for Hct levels, difference in means (estimate): log scale", "method": "as §1\n(§2) For Hct and Hb analysis, 100 μl of blood from rat's tail vein was collected and measured using CG8 cartridges analysed with an iSTAT instrument (Abbott Point of Care Inc, Abbot Park, IL, USA).\n(§3) The data for each feature measured was checked for a normal distribution and where appropriate a log transformation was applied to data with a non-normal distribution using R. Since the data were grouped by one factor Zibotentin doses or combined therapy, a one-way ANOVA was used to analyse traits measured at a single time point (GraphPad version 8 or R statistics package emmeans) and a linear mixed effects model (nlme package) in R was used to analyse multiple measures data for body weight. The differences between groups were tested using either a Dunnett test (emmeans package in R or GraphPad v8) when comparing treated groups to the vehicle group or a Tukey comparison (emmeans package in R or Graphpad v8.) for specific pairwise comparisons of treated groups. All model assumptions were checked using the model diagnostic plots in R statistics. Results are expressed as the Mean±standard error of the Mean (SEM) for pharmacodynamic parameters and Mean±standard deviation (SD) for compound concentration in blood and urine. Significance was set at p<0.05.\nThe Hct data were analysed using a linear mixed effects model to estimate the marginal means and standard deviations within the vehicle and treated groups estimated at day 3, day 7 and overall for the entire study for post hoc comparisons. Treatment groups were compared to the vehicle to determine whether there were effects on Hct compared to the vehicle treated control group (Dunnett test), and the zibotentan treated groups were compared to zibotentan plus dapagliflozin groups (using a Tukey test) to determine if the combined therapy mitigated the effect of zibotentan on Hct."}, "[3]": {"test_system": "male Wistar rats fed a 4% salt diet", "experiment": "Effect of zibotentan and dapagliflozin on Hb, Experiment 2", "type": "in vivo", "conditions": "Exp 2; for Basal Hb: baseline", "method": "as §1, §2, §3"}, "[4]": {"test_system": "patients with CKD with and without type 2 diabetes", "conditions": "dapagliflozin 10 mg", "method": "The effect of dapagliflozin on albuminuria was investigated in patients with CKD with and without type 2 diabetes. In this analysis from the Phase 3 DAPA CKD trial, the efficacy of dapagliflozin was assessed to determine whether treatment with dapagliflozin reduces the level of albuminuria in patients with CKD.\nIn the trial, 4304 patients with estimated glomerular filtration rate 25-75 mL/min/1·73 m2 and urinary UACR 200-5000 mg/g were randomized to dapagliflozin (10 mg) or placebo. Change in albuminuria was assessed as the mean change in log-transformed UACR from baseline to end of study. Regression in UACR stage, defined as a transition from macroalbuminuria (≥300 mg/g) to micro- or normoalbuminuria (<300 mg/g), and progression in UACR stage, defined as a transition from <3000 mg/g to ≥3000 mg/g, were additional endpoints."}, "[5]": {"test_system": "male Wistar rats on 4% salt diet", "experiment": "Effect of zibotentan on haematocrit (Hct) concentration, Experiment 1", "type": "in vivo", "conditions": "Exp 1; for Hct concentration compared to vehicle: FIG. 4", "method": "The effect of dapagliflozin and zibotentan on haematocrit (Hct) concentration in male Wistar rats on 4% salt diet was investigated.\n(§4) In the first experiment (Experiment 1), the effect of zibotentan on haematocrit (Hct) concentration was determined when zibotentan was administered peroral (p.o) QD for 14 days. […] Animals were weighed daily prior to dosing throughout the experiment. Blood samples (20 μL) for bioanalysis were taken at 4 and 24 hr after the first dose via the tail vein from conscious animals and 24 hr after the last dose via retroorbital route from anesthetized animals. Blood samples were collected via tail vein (100 μL) for Hct concentration and haemoglobin (Hb) measurements, on day 7 and on day 14, 1-2 hr after dosing. Twenty-four hour urine was collected for the measurement of urinary glucose, urine volume and electrolytes between doses nine and ten. Animals were terminated 24 hr after the last dose. On the day of termination, animals were anesthetized using 5% isoflurane, and blood was collected via the retroorbital route (in heparin-coated microvette, Sarsted) and centrifuged at 3,500 rpm at 4° C. for 10 minutes, plasma was collected and stored at −80° C. degrees prior to analysis. Animals were then euthanized by the removal of the heart. Both the heart and the kidneys were extracted and weighed. From the right kidney, a 4 mm thick slice of tissue was collected and fixed in 4% formaldehyde for subsequent histological analysis and a piece of cortical kidney tissue and heart tissue was collected for gene expression analysis.\nas §2\n(§5) Significance was set at p<0.05."}, "[6]": {"test_system": "male Wistar rats on 4% salt diet", "experiment": "Effect of zibotentan on kidney and heart weight, Experiment 1", "type": "in vivo", "method": "as §4, §5"}, "[7]": {"conditions": "Exp 1, Zibo 30 mg/kg p.o. QD 14 days"}, "[8]": {"conditions": "Exp 1, Zibo 100 mg/kg p.o. QD 14 days"}, "[9]": {"conditions": "Exp 1, Zibo 300 mg/kg p.o. QD 14 days"}, "[10]": {"conditions": "Exp 1, zibotentan 100 mg/kg, 14 days"}},
  "note": "Read-outs that look alike come from different tables or passages of the source.",
  "data": [
    {"smiles": "CCOc1ccc(Cc2cc([C@@H]3O[C@H](CO)[C@@H](O)[C@H](O)[C@H]3O)ccc2Cl)cc1", "note": "[Dapa, (1S)-1,5-anhydro-1-{4-chloro-3-[(4-ethoxyphenyl)methyl]phenyl}-D-glucitol]", "values": [
      {"measurement": "Amount of dapagliflozin excreted in urine", "setting": "[1]; Dapa 3 mg/kg p.o. QD", "result": 0.198, "unit": "µmol"},
      {"measurement": "Difference in Hct means", "setting": "[2]; Dapa 3 mg/kg vs Vehicle", "result": 0.01},
      {"measurement": "Hct levels, difference in means (estimate)", "setting": "[2]; day 3, Dapa 3.0 mg/kg vs Vehicle", "result": 0.03},
      {"measurement": "Hct levels, Difference", "setting": "[2]; day 7, Dapa 3.0 mg/kg vs Vehicle", "result": 0.01},
      {"measurement": "Day 3 Hb", "setting": "[3]; Dapa 3 mg/kg p.o. QD", "result": 164.4, "unit": "g/L"},
      {"measurement": "Day 7 Hb", "setting": "[3]; Dapa 3 mg/kg p.o. QD", "result": 159.1, "unit": "g/L"},
      {"measurement": "Basal Hb", "setting": "[3]; group Dapa 3 mg/kg", "result": 157.9, "unit": "g/L"},
      {"measurement": "Progression in UACR stage, hazard ratio", "setting": "[4]; 3820 patients with UACR<3000 mg/g at baseline, 95% CI 0.32-0.52", "result": 0.41},
      {"measurement": "Regression in UACR stage, hazard ratio", "setting": "[4]; 3860 patients with UACR≥300 mg/g at baseline, 95% CI 1.60-2.05", "result": 1.81},
      {"measurement": "UACR reduction compared to placebo", "setting": "[4]; CKD patients with and without type 2 diabetes, baseline to end of study, 95% CI 25.2-33.1%", "result": 29.3, "unit": "%"},
      {"measurement": "UACR reduction compared to placebo", "setting": "[4]; CKD patients with type 2 diabetes, 95% CI 30.6-39.4%", "result": 35.1, "unit": "%"},
      {"measurement": "UACR reduction compared to placebo", "setting": "[4]; CKD patients without type 2 diabetes, 95% CI 5.9-22.9%", "result": 14.8, "unit": "%"}
    ]},
    {"smiles": "COc1nc(C)cnc1NS(=O)(=O)c1cccnc1-c1ccc(-c2nnco2)cc1", "note": "[Zibo, N-(3-methoxy-5-methylpyrazin-2-yl)-2-[4-(1,3,4-oxadiazol-2-yl)phenyl]pyridine-3-sulfonamide]", "values": [
      {"measurement": "Amount of zibotentan excreted in urine", "setting": "[1]; Zibo 30 mg/kg p.o. QD", "result": 2.17, "unit": "µmol"},
      {"measurement": "Amount of zibotentan excreted in urine", "setting": "[1]; Zibo 100 mg/kg p.o. QD", "result": 3.21, "unit": "µmol"},
      {"measurement": "Hct concentration compared to vehicle (significant decrease?)", "setting": "[5]; zibotentan 30 mg/kg p.o. QD, day 14", "result": "not for the lower dose"},
      {"measurement": "Hct concentration compared to vehicle", "setting": "[5]; zibotentan 30, 100 and 300 mg/kg p.o. QD, day 7", "result": "significant (p<0.05) decrease"},
      {"measurement": "Hct concentration compared to vehicle", "setting": "[5]; zibotentan 100 and 300 mg/kg p.o. QD, day 14", "result": "significant (p<0.05) decrease"},
      {"measurement": "Kidney/tibia length", "setting": "[6]", "result": "54.00 ± 0.80", "unit": "mg/mm"},
      {"measurement": "Heart weight", "setting": "[6]; [7]", "result": "1.00 ± 0.02", "unit": "g"},
      {"measurement": "Heart/tibia length", "setting": "[6]; [7]", "result": "25.00 ± 0.47", "unit": "mg/mm"},
      {"measurement": "Kidney weight", "setting": "[6]; [7]", "result": "2.13 ± 0.04", "unit": "g"},
      {"measurement": "Heart weight", "setting": "[6]; [8]", "result": "1.05 ± 0.01", "unit": "g"},
      {"measurement": "Heart/tibia length", "setting": "[6]; [8]", "result": "27.00 ± 0.37", "unit": "mg/mm"},
      {"measurement": "Kidney weight", "setting": "[6]; [8]", "result": "2.16 ± 0.05", "unit": "g"},
      {"measurement": "Kidney/tibia length", "setting": "[6]; [8]", "result": "55.0 ± 1.65", "unit": "mg/mm"},
      {"measurement": "Heart weight", "setting": "[6]; [9]", "result": "0.98 ± 0.00", "unit": "g"},
      {"measurement": "Heart/tibia length", "setting": "[6]; [9]", "result": "25.00 ± 0.24", "unit": "mg/mm"},
      {"measurement": "Kidney/tibia length", "setting": "[6]; [9]", "result": "57.0 ± 1.39", "unit": "mg/mm"},
      {"measurement": "Heart weight compared to vehicle", "setting": "[6]; [10]", "result": "increase"},
      {"measurement": "Heart weight increase after normalizing with tibia length", "setting": "[6]; [10]", "result": "not statistically significant"},
      {"measurement": "Kidney weight with or without normalizing with tibia length compared to vehicle", "setting": "[6]; Exp 1, zibotentan 300 mg/kg, 14 days", "result": "increase"},
      {"measurement": "Difference in Hct means", "setting": "[2]; Zibo 30 mg/kg vs Vehicle", "result": "−0.05"},
      {"measurement": "Difference in Hct means", "setting": "[2]; Zibo 100 mg/kg vs Vehicle", "result": "−0.06"},
      {"measurement": "Hct levels, difference in means (estimate)", "setting": "[2]; day 3, Zibo 30 mg/kg vs Vehicle", "result": "−0.10"},
      {"measurement": "Hct levels, difference in means (estimate)", "setting": "[2]; day 3, Zibo 100 mg/kg vs Vehicle", "result": "−0.08"},
      {"measurement": "Hct compared to vehicle", "setting": "[2]; day 3, zibotentan 30 and 100 mg/kg with or without dapagliflozin 3 mg/kg", "result": "decreased"},
      {"measurement": "Hct levels, Difference", "setting": "[2]; day 7, Zibo 30 mg/kg vs Vehicle", "result": "−0.06"},
      {"measurement": "Hct levels, Difference", "setting": "[2]; day 7, Zibo 100 mg/kg vs Vehicle", "result": "−0.08"},
      {"measurement": "Hct compared to vehicle", "setting": "[2]; day 7, zibotentan 30 and 100 mg/kg alone", "result": "decreased"},
      {"measurement": "Effect on Hct concentration", "setting": "[2]; zibotentan 100 mg/kg alone, 7 days, one way ANOVA, Tukey", "result": "−4.00±0.87"},
      {"measurement": "Hct concentration", "setting": "[2]; zibotentan 30 or 100 mg/kg, 7 days administration", "result": "significantly decreased"},
      {"measurement": "Day 3 Hb", "setting": "[3]; Zibo 30 mg/kg p.o. QD", "result": 144.4, "unit": "g/L"},
      {"measurement": "Day 7 Hb", "setting": "[3]; Zibo 30 mg/kg p.o. QD", "result": 148.6, "unit": "g/L"},
      {"measurement": "Day 3 Hb", "setting": "[3]; Zibo 100 mg/kg p.o. QD", "result": 147.5, "unit": "g/L"},
      {"measurement": "Day 7 Hb", "setting": "[3]; Zibo 100 mg/kg p.o. QD", "result": 144.8, "unit": "g/L"},
      {"measurement": "Basal Hb", "setting": "[3]; group Zibo 30 mg/kg", "result": 160.2, "unit": "g/L"},
      {"measurement": "Basal Hb", "setting": "[3]; group Zibo 100 mg/kg", "result": 158.5, "unit": "g/L"}
    ]}
  ]
}
